Key:
[1] = test system: breast cancer cell line MX-1; assay: MX-1 cell line proliferation assay, Method B; format: cell-based; settings: Homo sapiens, MX1; MX-1 cells, 384-well, 72 hours, Cell Titer Glo; read-out: Cellular proliferation: EC50 Method B
Procedure: The impact of compounds of the Examples on cancer cell proliferation was determined using the breast cancer cell line MX-1 (ATCC) in a 3-day proliferation assay and the data are reported in Table 1.
Method B: MX-1 cells were maintained in RPMI 1640 medium (Sigma) supplemented with 10% FBS at 37 C.° and an atmosphere of 5% CO2. For compound testing, MX-1 cells were plated in 384-well white with clear, flat bottom plates at a density of 750 cells/well in 25 μL of culture media and incubated at 370 overnight to allow cell adhesion and spreading. Ten point compound dilution series were prepared in DMSO via a 3-fold serial dilution from either […] or 1 μM stock and added directly to the appropriate wells of the MX-1 cell plate by an ECHO liquid handler (Labcyte). The final compound concentrations in the wells were 10, 3.25, 1, 0.25, 0.124, 0.040, 0.0124, 0.0031, 0.0015 and 0.0005 μM or 1, 0.33, 0.1, 0.025, 0.0124, 0.004, 0.0012, 0.0003, 0.00015, 0.00005 μM, depending on the concentration of the compound stock solution.
Luminescence readings from the Cell Titer Glo assay were normalized to the DMSO treated cells and analyzed using Accelrys Assay Explorer 3.3 software with sigmoidal curve fitting to obtain ECsos. The minimum significant ratio (MSR) was determined to evaluate assay reproducibility (Eastwood et al., (2006) J Biomol Screen, 11: 253-261). The overall MSR was determined to be 3.3 and a moving MSR (last six run MSR overtime) has averaged

[2] = target: BRD4 (BDII_E352-M457) (Homo sapiens (Human), UniProt O60885); assay: TR-FRET bromodomain binding assay, BRD4 second bromodomain; settings: His-tagged BD2, Alexa647-labeled probe 30 nM
In short: (§1)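 Affinity for each isolated His-tagged domain was measured as competition with a fluorescent Alexa647 BET-inhibitor probe in a TR-FRET format at pH 6.0, 1 h room temperature incubation. Ki values were calculated from fitted IC50s, probe Kd and probe level (100 nM BDI, 30 nM BDII).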

[3] = target: BRD4 (BDI_K57-E168) (Homo sapiens (Human), UniProt O60885); assay: TR-FRET bromodomain binding assay, BRD4 first bromodomain; settings: His-tagged BD1, Alexa647-labeled probe 100 nM
In short: as §1

| SMILES | EC50 [1] [nM] | Ki [2] [nM] | Ki [3] [nM] |
| --- | --- | --- | --- |
| CCNC(=O)c1cc2c(-c3ccc(C(=O)N(CCCN(C)C)C4CCCCC4)cc3Oc3c(C)cccc3C)cn(C)c(=O)c2[nH]1 [Example 172, 4-[4-{cyclohexyl[3-(dimethylamino)propyl]carbamoyl}-2-(2,6-dimethylphenoxy)phenyl]-N-ethyl-6-methyl-7-oxo-6,7-dihydro-1H-pyrrolo[2,3-c]pyridine-2-carboxamide] | 2540 | 6.66 | 1000 |
| CCNC(=O)c1cc2c(-c3ccc(C(=O)N(Cc4ccccc4)Cc4ccc(Cl)cc4)cc3Oc3c(C)cccc3C)cn(C)c(=O)c2[nH]1 [Example 173, 4-{4-[benzyl(4-chlorobenzyl)carbamoyl]-2-(2,6-dimethylphenoxy)phenyl}-N-ethyl-6-methyl-7-oxo-6,7-dihydro-1H-pyrrolo[2,3-c]pyridine-2-carboxamide] | 5250 | 64.3 | > 12700 |
| CCNC(=O)c1cc2c(-c3ccc(C(=O)N(CCN(CC)CC)c4ccccc4OC)cc3Oc3c(C)cccc3C)cn(C)c(=O)c2[nH]1 [Example 178, 4-[4-{[2-(diethylamino)ethyl](2-methoxyphenyl)carbamoyl}-2-(2,6-dimethylphenoxy)phenyl]-N-ethyl-6-methyl-7-oxo-6,7-dihydro-1H-pyrrolo[2,3-c]pyridine-2-carboxamide] | 10000 | 2.5 | 592 |
| CCNC(=O)c1cc2c(-c3ccc(C(=O)N(CCN(C)C)c4ccccc4)cc3Oc3c(C)cccc3C)cn(C)c(=O)c2[nH]1 [Example 179, 4-[4-{[2-(dimethylamino)ethyl](phenyl)carbamoyl}-2-(2,6-dimethylphenoxy)phenyl]-N-ethyl-6-methyl-7-oxo-6,7-dihydro-1H-pyrrolo[2,3-c]pyridine-2-carboxamide] | 991 | 8.24 | 1580 |
| CCNC(=O)c1cc2c(-c3ccc(C(=O)N(CCN(CC)CC)c4ccccc4)cc3Oc3c(C)cccc3C)cn(C)c(=O)c2[nH]1 [Example 182, 4-[4-{[2-(diethylamino)ethyl](phenyl)carbamoyl}-2-(2,6-dimethylphenoxy)phenyl]-N-ethyl-6-methyl-7-oxo-6,7-dihydro-1H-pyrrolo[2,3-c]pyridine-2-carboxamide] | 2120 | 6.06 | 921 |
| CCNC(=O)c1cc2c(-c3ccc(C(=O)N(CC#N)c4ccc(OC)cc4)cc3Oc3c(C)cccc3C)cn(C)c(=O)c2[nH]1 [Example 183, 4-{4-[(cyanomethyl)(4-methoxyphenyl)carbamoyl]-2-(2,6-dimethylphenoxy)phenyl}-N-ethyl-6-methyl-7-oxo-6,7-dihydro-1H-pyrrolo[2,3-c]pyridine-2-carboxamide] | 1480 | 14.1 | 2800 |
| CCNC(=O)c1cc2c(-c3ccc(C(=O)N(CCN(C)C)c4ccnc(F)c4)cc3Oc3c(C)cccc3C)cn(C)c(=O)c2[nH]1 [Example 185, 4-[4-{[2-(dimethylamino)ethyl](2-fluoropyridin-4-yl)carbamoyl}-2-(2,6-dimethylphenoxy)phenyl]-N-ethyl-6-methyl-7-oxo-6,7-dihydro-1H-pyrrolo[2,3-c]pyridine-2-carboxamide] | 2720 | 14.3 | 2940 |
| CCNC(=O)c1cc2c(-c3ccc(C(=O)N(c4ccccc4)C4CCCCC4)cc3Oc3c(C)cccc3C)cn(C)c(=O)c2[nH]1 [Example 186, 4-{4-[cyclohexyl(phenyl)carbamoyl]-2-(2,6-dimethylphenoxy)phenyl}-N-ethyl-6-methyl-7-oxo-6,7-dihydro-1H-pyrrolo[2,3-c]pyridine-2-carboxamide] | 7650 | 178 | > 12700 |
| Cc1cccc(C)c1Oc1ccc(S(C)(=O)=O)cc1-c1cn(C)c(=O)c2[nH]c(C(=O)NCCCN(C)C3CCCCC3)cc12 [Example 187, N-{3-[cyclohexyl(methyl)amino]propyl}-4-[2-(2,6-dimethylphenoxy)-5-(methylsulfonyl)phenyl]-6-methyl-7-oxo-6,7-dihydro-1H-pyrrolo[2,3-c]pyridine-2-carboxamide] | 290 | 2.52 | 99.8 |
| CN1CCN(Cc2cc3c(-c4cc(S(C)(=O)=O)ccc4Oc4ccc(F)cc4F)cn(C)c(=O)c3[nH]2)C(c2ccccc2)C1 (stereo not drawn) [Example 188, 4-[2-(2,4-difluorophenoxy)-5-(methylsulfonyl)phenyl]-6-methyl-2-[(4-methyl-2-phenylpiperazin-1-yl)methyl]-1,6-dihydro-7H-pyrrolo[2,3-c]pyridin-7-one] | 76.8 | 151 | 1.56 |

More lines, in order of falling EC50 [1], values ahead:

| EC50 [1] [nM] | Ki [2] [nM] | Ki [3] [nM] | SMILES |
| --- | --- | --- | --- |
| 10000 | 9.21 | 1490 | CCNC(=O)c1cc2c(-c3ccc(C(=O)N(CC#N)c4ccccc4)cc3Oc3c(C)cccc3C)cn(C)c(=O)c2[nH]1 [Example 177, 4-{4-[(cyanomethyl)(phenyl)carbamoyl]-2-(2,6-dimethylphenoxy)phenyl}-N-ethyl-6-methyl-7-oxo-6,7-dihydro-1H-pyrrolo[2,3-c]pyridine-2-carboxamide] |
| 6410 | 38.3 | > 12700 | CCNC(=O)c1cc2c(-c3ccc(C(=O)N(CC#N)c4cccc(C(F)(F)F)c4)cc3Oc3c(C)cccc3C)cn(C)c(=O)c2[nH]1 [Example 171, 4-[4-{(cyanomethyl)[3-(trifluoromethyl)phenyl]carbamoyl}-2-(2,6-dimethylphenoxy)phenyl]-N-ethyl-6-methyl-7-oxo-6,7-dihydro-1H-pyrrolo[2,3-c]pyridine-2-carboxamide] |
| 6060 | 30.8 | 8610 | CCNC(=O)c1cc2c(-c3ccc(C(=O)N(CCCC(=O)OCC)c4ccccc4)cc3Oc3c(C)cccc3C)cn(C)c(=O)c2[nH]1 [Example 180, ethyl 4-[{3-(2,6-dimethylphenoxy)-4-[2-(ethylcarbamoyl)-6-methyl-7-oxo-6,7-dihydro-1H-pyrrolo[2,3-c]pyridin-4-yl]benzoyl}(phenyl)amino]butanoate] |
| 3980 | 9.18 | 1730 | CCNC(=O)c1cc2c(-c3ccc(C(=O)N(CCN(C)C)c4ccccn4)cc3Oc3c(C)cccc3C)cn(C)c(=O)c2[nH]1 [Example 181, 4-[4-{[2-(dimethylamino)ethyl](pyridin-2-yl)carbamoyl}-2-(2,6-dimethylphenoxy)phenyl]-N-ethyl-6-methyl-7-oxo-6,7-dihydro-1H-pyrrolo[2,3-c]pyridine-2-carboxamide] |
| 3910 | 8.65 | 927 | CCNC(=O)c1cc2c(-c3ccc(C(=O)N(CCC#N)C4CCCCC4)cc3Oc3c(C)cccc3C)cn(C)c(=O)c2[nH]1 [Example 176, 4-{4-[(2-cyanoethyl)(cyclohexyl)carbamoyl]-2-(2,6-dimethylphenoxy)phenyl}-N-ethyl-6-methyl-7-oxo-6,7-dihydro-1H-pyrrolo[2,3-c]pyridine-2-carboxamide] |
| 2840 | 11.1 | 1080 | CCCCN(CCC#N)C(=O)c1ccc(-c2cn(C)c(=O)c3[nH]c(C(=O)NCC)cc23)c(Oc2c(C)cccc2C)c1 [Example 184, 4-{4-[butyl(2-cyanoethyl)carbamoyl]-2-(2,6-dimethylphenoxy)phenyl}-N-ethyl-6-methyl-7-oxo-6,7-dihydro-1H-pyrrolo[2,3-c]pyridine-2-carboxamide] |
| 2410 | 17.5 | 2230 | CCNC(=O)c1cc2c(-c3ccc(C(=O)N(CCC#N)c4cccc(Cl)c4)cc3Oc3c(C)cccc3C)cn(C)c(=O)c2[nH]1 [Example 175, 4-{4-[(3-chlorophenyl)(2-cyanoethyl)carbamoyl]-2-(2,6-dimethylphenoxy)phenyl}-N-ethyl-6-methyl-7-oxo-6,7-dihydro-1H-pyrrolo[2,3-c]pyridine-2-carboxamide] |
| 2170 | 4.22 | 863 | CCNC(=O)c1cc2c(-c3ccc(C(=O)N(CCN(CC)CC)c4ccccc4C)cc3Oc3c(C)cccc3C)cn(C)c(=O)c2[nH]1 [Example 170, 4-[4-{[2-(diethylamino)ethyl](2-methylphenyl)carbamoyl}-2-(2,6-dimethylphenoxy)phenyl]-N-ethyl-6-methyl-7-oxo-6,7-dihydro-1H-pyrrolo[2,3-c]pyridine-2-carboxamide] |
| 1610 | 13.3 | 2300 | CCNC(=O)c1cc2c(-c3ccc(C(=O)N(CCN(C)C)c4ncccn4)cc3Oc3c(C)cccc3C)cn(C)c(=O)c2[nH]1 [Example 174, 4-[4-{[2-(dimethylamino)ethyl](pyrimidin-2-yl)carbamoyl}-2-(2,6-dimethylphenoxy)phenyl]-N-ethyl-6-methyl-7-oxo-6,7-dihydro-1H-pyrrolo[2,3-c]pyridine-2-carboxamide] |

Reference: patent US9957263B2, “Bromodomain inhibitors” (AbbVie Inc., priority 2013, dated 2018)
